Measured values: PMC4938718 (Structure (London, England : 1993), 2016)

Experiments:
[1] = target: T1, HisH subunit of imidazole glycerol phosphate synthase (IGPS) (Thermotoga maritima, UniProt Q9X0C8); test: covalent labeling, loss of free Cys thiol confirmed by DTNB assay; type: binding
T1 sequence (Q9X0C8 1-201): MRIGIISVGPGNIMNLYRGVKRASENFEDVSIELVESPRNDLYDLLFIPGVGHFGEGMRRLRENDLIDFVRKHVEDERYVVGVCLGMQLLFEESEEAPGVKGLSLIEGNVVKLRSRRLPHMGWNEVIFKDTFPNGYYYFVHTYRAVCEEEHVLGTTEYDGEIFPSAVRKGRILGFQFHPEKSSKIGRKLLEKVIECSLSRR
T1 sequence (Q9X0C6 1-253 partner): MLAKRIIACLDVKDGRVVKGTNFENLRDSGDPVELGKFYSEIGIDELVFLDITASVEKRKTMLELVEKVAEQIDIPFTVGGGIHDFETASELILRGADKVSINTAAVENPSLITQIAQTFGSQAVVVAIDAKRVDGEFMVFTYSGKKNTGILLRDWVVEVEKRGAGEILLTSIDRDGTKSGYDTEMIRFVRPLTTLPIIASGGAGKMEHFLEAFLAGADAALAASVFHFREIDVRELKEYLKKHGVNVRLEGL

[2] = target: T2, HisF subunit of imidazole glycerol phosphate synthase (IGPS) (Thermotoga maritima, UniProt Q9X0C6); test: NMR lineshape analysis of titration; type: binding
T2 sequence (Q9X0C6 1-253): T1 sequence (Q9X0C6 1-253 partner)
T2 sequence (Q9X0C8 1-201 partner): T1 sequence (Q9X0C8 1-201)

Compound	covalent labeling, loss of free Cys thiol confirmed by DTNB assay [1]	Kd [2]
N[C@H](C(=O)O)[C@@H]1CC(Cl)=NO1 [acivicin]	Covalent modification of IGPS with the non-hydrolyzable Gln analogue acivicin was achieved by incubating IGPS with two molar equivalents	–
NC(=O)c1ncn([C@@H]2O[C@H](COP(=O)(O)O)[C@@H](O)[C@H]2O)c1N [AICAR]	–	1.5 ± 0.2 mM
